These results are taken from PMC12813973, “Consequences of Peptide Macrocyclization Revealed by Virus-Inspired β‑Hairpin Mimetics” (ACS Chemical Biology, 2025).

Where two headings read alike, the source gives them in different places.

Experiment [1] addresses T1, STAT1 (Homo sapiens, UniProt P42224).
T1 construct: full-length STAT1 (Uniprot #P42224-1) was expressed in E. coli; His tag (pEXP-NHis vector) (N); made in house; host or cells: E. coli T7 Express
T1 sequence (P42224 1-750): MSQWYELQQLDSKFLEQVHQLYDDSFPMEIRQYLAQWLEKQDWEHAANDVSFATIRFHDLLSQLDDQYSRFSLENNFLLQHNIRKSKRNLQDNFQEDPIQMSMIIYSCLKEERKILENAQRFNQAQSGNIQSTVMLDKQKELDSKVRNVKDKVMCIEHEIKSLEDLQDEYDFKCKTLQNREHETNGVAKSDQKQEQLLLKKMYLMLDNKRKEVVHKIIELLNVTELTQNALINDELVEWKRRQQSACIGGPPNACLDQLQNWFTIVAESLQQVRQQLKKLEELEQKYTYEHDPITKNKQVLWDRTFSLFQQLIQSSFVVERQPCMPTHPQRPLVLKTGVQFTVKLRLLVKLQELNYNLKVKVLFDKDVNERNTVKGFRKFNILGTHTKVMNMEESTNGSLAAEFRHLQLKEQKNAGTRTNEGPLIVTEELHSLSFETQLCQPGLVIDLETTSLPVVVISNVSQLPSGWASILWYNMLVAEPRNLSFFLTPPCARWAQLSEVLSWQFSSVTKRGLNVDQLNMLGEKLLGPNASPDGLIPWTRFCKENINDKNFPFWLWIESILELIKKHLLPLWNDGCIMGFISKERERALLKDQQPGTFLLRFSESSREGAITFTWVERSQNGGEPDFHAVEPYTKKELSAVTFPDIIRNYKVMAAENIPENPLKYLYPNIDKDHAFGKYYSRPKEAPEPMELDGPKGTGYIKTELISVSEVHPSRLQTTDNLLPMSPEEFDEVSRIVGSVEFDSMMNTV
As to the kind of experiment: Grating-coupled interferometry (GCI) waveRAPID kinetics, immobilised full-length STAT1. The note with it: for kd / kon at 0.5 µM: analyte 0.5 µM; for kon at 0.5 µM: read-out: ka. Type of experiment: binding. The text has this:
Understanding the molecular determinants of kinetic rate constants of binding (k a, k d) can aid the design of pharmacological probes with longer target engagement, which is beneficial for drug efficacy and decreased toxicity. , We characterized the binding kinetics of 018-derived macrocycles by using grating-coupled interferometry (GCI). We used waveRAPID, a regeneration-free kinetic binding assay that applies sequential analyte pulses of increasing duration onto a GCI biosensor surface with an immobilized target (Figures A, and S3,S4, Table S2).
Grating coupled interferometry (GCI)
GCI experiments were performed on a Creoptix WaveDELTA instrument (Malvern Panalytical). Full-length STAT1 or STAT3 were immobilised on a 4PCH chip (Malvern Panalytical #4PCH-03) to a density 2000-8000 pg/mm2 using EDC/NHS activation followed by amine coupling. Briefly, proteins (500 nM) were applied onto an activated chip in 10 mM MES pH 6.5, 20 mM NaCl, after which the chip surface was passivated with 1M ethanolamine, pH 8.0.
The kinetic measurements were perfor med using 20 mM HEPES pH 7.5, 300 mM NaCl, 0.01% Tween-20, 0.0005% DMSO as running buffer. Peptides were tested at 0.5 or 10 μM concentration using the waveRAPID kinetics experiment with the tight binder or intermediate binder mode, respectively.[4] Sensorgrams were fitted in the waveControl software (Malven Panalytical) using the 1:1 kinetic model. […]

The target of experiment [2] is T1, STAT1. As to the kind of experiment: Fluorescence polarization competition assay with fluorescein-labelled pIFNGR1 docking site peptide probe. Type of experiment: binding. The note with it: 10 nM fluorescein pIFNGR1 probe, STAT1 1.5 μM, 20 mM Tris pH 8.0, 300 mM NaCl, 0.1% Tween-20, 0.5 mM TCEP, 2.5% DMSO, room temperature; four parameter logistic fit; read-out: IC50 (FP competition, pIFNGR1 probe displacement).

The mark [3] stands for this setting: replicate 1 (first listed run, Table S2).
Setting [4] is: replicate 2 (second listed run, Table S2).
[5] abbreviates: replicate 3 (third listed run, Table S2).

The term Kd denotes the concentration at which binding is half-saturated. A high value points to weaker binding. By IC50 is commonly meant the concentration that inhibits the measured activity by half. `CC[C@H](C)[C@H](NC(=O)[C@H](Cc1ccccc1)NC(=O)[C@@H](NC(=O)[C@H](CO)NC(=O)[C@H](Cc1c[nH]c2ccccc12)NC(=O)[C@H](CCSC)NC(C)=O)C(C)C)C(=O)N[C@@H](Cc1c[nH]cn1)C(=O)NCC(=O)N[C@@H](Cc1c[nH]cn1)C(=O)N[C@@H](CC(=O)O)C(=O)NCC(=O)N[C@@H](CO)C(=O)N[C@@H](CC(N)=O)C(=O)N[C@@H](CCCCN)C(=O)NCC(=O)N[C@@H](CO)C(=O)N[C@@H](CCCCN)C(=O)N[C@H](C(=O)N[C@@H](Cc1ccc(O)cc1)C(=O)N[C@H](C(N)=O)[C@@H](C)O)[C@@H](C)O` [Peptide 1]: the Kd in experiment [1] (20 mM HEPES pH 7.5, 300 mM NaCl, 0.01% Tween-20, 1:1 kinetic model, average of 2–4 technical replicates ± SD, SD) is 85.8 ± 6.4 nM. The residence time in experiment [1] (STAT1, GCI, read-out: target residence time τ (τ = 1/kd) (converted)) is 0.8 min. Further, the kd in experiment [1] (setting [3]) stood at 0.0221 s⁻¹; in experiment [1] (setting [4]) it was 0.0172 s⁻¹; in experiment [1] (setting [5]), 0.0226 s⁻¹. Besides, the values for the kon at 0.5 µM in experiment [1] (setting [3]), in experiment [1] (setting [4]) and in experiment [1] (setting [5]) were 241000 M⁻¹ s⁻¹, 217000 M⁻¹ s⁻¹ and 262000 M⁻¹ s⁻¹, respectively. The IC50 in experiment [2] stood at 4.3 µM.
